# Patent US20240366612A1, “COMPOUNDS AND METHODS FOR MODULATING NUCLEIC ACID SPLICING” (REMIX THERAPEUTICS INC., priority 2021, published 2024)
# Where a name gives a salt, the structure may show the parent alone.
# Experiments:
# Target C CJ mRNA = experiment: Gene panel canonical junction qPCR assay, Target C; assay type: cell-based; conditions: Homo sapiens, larger gene panel, read-out: Target C IC50 (decrease in CJ mRNA levels)
# Protocol: Compounds described herein were used to modulate RNA transcript abundance in cells. The expression of a target mRNA was measured by detecting the formation of an exon-exon junction in the canonical transcript (CJ). A compound mediated exon-inclusion event was detected by observing an increase in formation of a new junction with an alternative exon (AJ). Real-time qPCR assays were used to detect these splicing switches and interrogate the potency of various compounds towards different target genes. A high-throughput real time quantitative PCR (RT-qPCR) assay was developed to measure these two isoforms of the mRNA (CJ and AJ) for exemplary genes, such as HTT, SMN2, and MYB, together with a control housekeeping gene, GAPDH or GUSB or PPIA, used for normalization. Briefly, the A673 or K562 cell line was treated with various compounds described herein (e.g., compounds of Formula (I)). After treatment, the levels of the HTT, MYB, or SMN2 mRNA targets were determined from each sample of cell lysate by cDNA synthesis followed by qPCR.
# The A673 cell line was cultured in DMEM with 10% FBS. Cells were diluted with full growth media and plated in a 96-well plate (15,000 cells in 100 ul media per well). The plate was incubated at 37° C. with 5% CO2 for 24 hours to allow cells to adhere. An 11-point 3-fold serial dilution of the compounds was made in DMSO then diluted in media in an intermediate plate. Compounds were transferred from the intermediate plate to the cell plate with the top dose at a final concentration of 10 uM in the well. Final DMSO concentration was kept at or below 0.25%. The cell plate was returned to the incubator at 37° C. with 5% CO2 for an additional 24 hours.
# The K562 cell line was cultured in IMDM with 10% FBS. For K562, cells were diluted with full growth media and plated in either a 96-well plate (50,000 cells in 50 uL media per well) or a 384-well plate (8,000-40,000 cells in 45 uL media per well). An 11-point 3-fold serial dilution of the compounds were made in DMSO then diluted in media in an intermediate plate. Compound was transferred from the intermediate plate to the cell plate with the top dose at a final concentration of 10 uM in the well. Final DMSO concentration was kept at or below 0.25%. Final volume was 100 uL for 96-well plate and 50 uL for 384-well plate. The cell plate was then placed in an incubator at 37° C. with 5% CO2 for 24 hours.
# The data analysis was performed by first determining the ΔCt vs the housekeeper gene. This ΔCt was then normalized against the DMSO control (ΔΔCt) and converted to RQ (relative quantification) using the 2^(−ΔΔCt) equation. The RQ were then converted to a percentage response by arbitrarily setting an assay window of 3.5 and 4.0 ΔCt for HTT-CJ and MYB-CJ respectively and an assay window of 9 and 3 ΔCt for HTT-AJ and MYB-AJ in 96 well format (50,000 K562 cells/well and 15,000 A673 cells per well) and an assay window of 3 and 4 ΔCt for HTT-CJ and MYB-CJ respectively and an assay window of 5 and 3 ΔCt for HTT-AJ and MYB-AJ respectively in 384 well format (8,000 K562 cells/well example). […] The percentage response was then fitted to the 4 parametric logistic equation to evaluate the concentration dependence of compound treatment. The increase in AJ mRNA is reported as AC50 (compound concentration having […] in AJ increase) while the decrease in CJ mRNA levels is reported as IC50 (compound concentration having 50% response in CJ decrease).
# Additional studies were carried out for a larger panel of genes using the protocol provided above. The junction between flanking upstream and downstream exons was used to design canonical junction qPCR assays. At least one of the forward primer, reverse primer or the CY5-labeled 5′ nuclease probe (with 3′ quencher such as ZEN/Iowa Black FQ) was designed to overlap with the exon junction to capture the CJ mRNA transcript. […]
# [1] = tested on: HiBiT-tagged Target C protein in K562 cells; experiment: HiBiT protein abundance assay, Target C; assay type: cell-based, human; conditions: HiBiT-modified K562 cells, 24 hours, luminescence
# Protocol: (§1) Compounds described herein were used to screen for effects on quantitative protein abundance using a HiBit assay system (Promega). Quantitative protein abundance was determined by measuring the protein levels of HiBit-tagged protein targets expressed in cell culture via luminescence using the Nano-Glo HiBiT Lytic Detection System, which uses a split complementation assay format to reconstitute NanoBiT enzyme to generate a luminescent signal. A protein abundance assay was developed such that endogenous protein targets could be modified with the HiBiT peptide tag and their abundance could be assessed after compound treatment. Briefly, K562 cell lines containing a HiBiT-modification were treated with various compounds described herein (e.g., compounds of Formulas (I), (II), or (III)). After treatment for 24 hours, the protein abundance of a specific target was determined by measuring luminescence.
# (§2) • Promega Nano-Glo HiBiT Lytic Detection System (cat #N3030) • Corning 384-well TC-treated microplates (cat #3570) • Synthego Engineered Cells Knock-In Clones
# (§3) Cells were maintained in IMDM with 10% FBS. Before the assay, cells were diluted with […] growth media (IMDM+1% FBS media) and were seeded in a 384-well plate at a density of 10000 cells/well (for each cell line listed in Table 5). Each compound was prepared as a 10-point 3-fold serial dilution in DMSO with the top dose at a final concentration of 10 μM in the well. Unmodified K562 cells were added at the previously specified density with DMSO to serve as an assay baseline and positive control (PC) and DMSO only with the respective modified cell lines was added to the negative control (NC) columns. Final DMSO concentration was kept at or below 0.25%. Treated cell plates were placed in an incubator at 37° C. with 5% CO2 for 24 hours. After 24 hours, 25 μL of Complete HiBit Lytic reagent was added to each well at room temperature (e.g. one plate requiring 10 mL Lytic Buffer, 100 μL LgBiT Protein, 200 μL Lytic Substrate), shaken for 5 minutes at 600 RPM, then left to sit for 10 minutes for signal to stabilize before reading on a Spark Cyto plate reader (Tecan) with a 500 ms measurement time.
# (§4) To determine compound effects on protein abundance of each target in Table 5, the percent response for each respective cell line was calculated at each compound concentration as follows:
# (§5) For the normalized response at each concentration, a four-parameter logistical regression was fit to the data and the response was interpolated at the 50% value to determine a concentration for protein abundance at 50% (IC50) the untreated control.
# [2] = tested on: HiBiT-tagged MYB protein in K562 cells; experiment: HiBiT protein abundance assay, MYB; assay type: cell-based, human; conditions: HiBiT-modified K562 cells, 24 hours, luminescence
# Protocol: as §1, §2, §3, §4, §5
Structure (SMILES),IC50 (Target C CJ mRNA) [nM],IC50 [1] [nM],IC50 [2] [nM]
"Cc1cn2nc(-c3cc(=O)n4cc(N(C)C5CC(C)(C)NC(C)(C)C5)sc4n3)cc(C)c2n1 [Compound 205, 7-(2,8-dimethylimidazo[1,2-b]pyridazin-6-yl)-2-(methyl(2,2,6,6-tetramethylpiperidin-4-yl)amino)-5H-thiazolo[3,2-a]pyrimidin-5-one]",1000 to 10000,1000 to 10000,1000 to 10000
"Cc1cn2cc(-c3cc4ncn(C5CCNC5)c(=O)c4s3)cc(F)c2n1 (stereo not drawn) [Compound 270, 6-{8-fluoro-2-methylimidazo[1,2-a]pyridin-6-yl}-3-(pyrrolidin-3-yl)thieno[3,2-d]pyrimidin-4-one]",100 to 1000,100 to 1000,100 to 1000
"Cc1cn2nc(-c3cc4ccn(C5CCNCC5)c(=O)c4s3)cc(C)c2n1 [Compound 806, 2-(2,8-dimethylimidazo[1,2-b]pyridazin-6-yl)-6-(piperidin-4-yl)thieno[2,3-c]pyridin-7(6H)-one]",100 to 1000,100 to 1000,100 to 1000
"Cc1cn2cc(-n3cnc4nc(N5CCN(C)CC5)sc4c3=O)cc(C(F)(F)F)c2n1 [Compound 230, 6-(2-methyl-8-(trifluoromethyl)imidazo[1,2-a]pyridin-6-yl)-2-(4-methylpiperazin-1-yl)thiazolo[4,5-d]pyrimidin-7(6H)-one]",> 10000,> 10000,> 10000
"Cc1cn2cc(-n3cnc4nc(N5CCN(C)CC5)sc4c3=O)cc(F)c2n1 [Compound 228, 6-(8-fluoro-2-methylimidazo[1,2-a]pyridin-6-yl)-2-(4-methylpiperazin-1-yl)thiazolo[4,5-d]pyrimidin-7(6H)-one]",1000 to 10000,1000 to 10000,1000 to 10000
"Cc1cn2cc(-c3cc4ncn([C@H]5CCNC[C@@H]5F)c(=O)c4s3)cc(F)c2n1 (relative stereo) [Compound 272, trans-6-{8-fluoro-2-methylimidazo[1,2-a]pyridin-6-yl}-3-[3-fluoropiperidin-4-yl]thieno[3,2-d]pyrimidin-4-one]",> 10000,1000 to 10000,1000 to 10000
Cc1cn2nc(-c3nc4sc(N5CCNCC5)nc4c(=O)[nH]3)cc2c(C)n1 [Compound 267],100 to 1000,100 to 1000,100 to 1000
"Cc1cn2cc(-c3cc4ncn([C@H]5CCN[C@@H](C)C5)c(=O)c4s3)cc(F)c2n1 (relative stereo) [Compound 278, 6-{8-fluoro-2-methylimidazo[1,2-a]pyridin-6-yl}-3-[(cis)-2-methylpiperidin-4-yl]thieno[3,2-d]pyrimidin-4-one hydrochloride]",100 to 1000,100 to 1000,100 to 1000
"Cc1cn2cc(-c3cc(=O)n4nc(N5CCNC6(CC6)C5)sc4n3)cc(F)c2n1 [Compound 209, 7-(8-fluoro-2-methylimidazo[1,2-a]pyridin-6-yl)-2-(4,7-diazaspiro[2.5]octan-7-yl)-5H-[1,3,4]thiadiazolo[3,2-a]pyrimidin-5-one]",1000 to 10000,1000 to 10000,1000 to 10000
"Cc1cc(-c2nn3c(=O)cc(N4CCNCC4)nc3s2)cc2cn(C)nc12 [Compound 206, 2-(2,7-dimethyl-2H-indazol-5-yl)-7-(piperazin-1-yl)-5H-[1,3,4]thiadiazolo[3,2-a]pyrimidin-5-one]",1000 to 10000,1000 to 10000,1000 to 10000
"Cc1cn2nc(-c3cc4ncn(C5CCN(C)CC5)c(=O)c4s3)cc(C)c2n1 [Compound 239, 6-(2,8-dimethylimidazo[1,2-b]pyridazin-6-yl)-3-(1-methylpiperidin-4-yl)thieno[3,2-d]pyrimidin-4(3H)-one]",> 10000,> 10000,1000 to 10000
"Cc1cn2cc(-c3nn4c(=O)cc(N5CCN(C)C6(CC6)C5)nc4s3)cc(F)c2n1 [Compound 218, 2-(8-fluoro-2-methylimidazo[1,2-a]pyridin-6-yl)-7-(4-methyl-4,7-diazaspiro[2.5]octan-7-yl)-5H-[1,3,4]thiadiazolo[3,2-a]pyrimidin-5-one]",1000 to 10000,1000 to 10000,1000 to 10000

# Other lines, results leading:
IC50 (Target C CJ mRNA) [nM],IC50 [1] [nM],IC50 [2] [nM],Structure (SMILES)
1000 to 10000,1000 to 10000,100 to 1000,Cn1cc2cc(-c3cc4ncn(C5CCNCC5)c(=O)c4s3)c(F)cc2n1 [Compound 258]
100 to 1000,100 to 1000,100 to 1000,"Cc1cc(-c2cc3cnn(C4CCNCC4)c(=O)c3s2)cc2cn(C)nc12 [Compound 802, 2-(2,7-dimethyl-2H-indazol-5-yl)-6-(piperidin-4-yl)thieno[2,3-d]pyridazin-7(6H)-one]"
1000 to 10000,1000 to 10000,1000 to 10000,Cc1nc(-c2cc3ncn(C4CCNCC4)c(=O)c3s2)cc2cn(C)nc12 [Compound 271]
1000 to 10000,1000 to 10000,100 to 1000,Cn1cc2cc(-c3cc4ncn(C5CCNCC5)c(=O)c4s3)cc(C#N)c2n1 [Compound 259]
100 to 1000,100 to 1000,100 to 1000,"Cc1cn2cc(-c3cc4ncn(C5CCCNCC5)c(=O)c4s3)cc(F)c2n1 (stereo not drawn) [Compound 275, 3-(azepan-4-yl)-6-{8-fluoro-2-methylimidazo[1,2-a]pyridin-6-yl}thieno[3,2-d]pyrimidin-4-one]"
1000 to 10000,100 to 1000,< 100,"Cc1cc(-c2cc3ncn(C4CCN(C)CC4)c(=O)c3s2)cc2cn(C)nc12 [Compound 237, 6-(2,7-dimethyl-2H-indazol-5-yl)-3-(1-methylpiperidin-4-yl)thieno[3,2-d]pyrimidin-4(3H)-one]"
100 to 1000,< 100,< 100,"Cc1cc(-c2nc3ncn(C4CCNCC4)c(=O)c3s2)cc2cn(C)nc12 [Compound 233, 2-(2,7-dimethyl-2H-indazol-5-yl)-6-(piperidin-4-yl)thiazolo[4,5-d]pyrimidin-7(6H)-one]"
